One experiment concerns the target human orexin-2 receptor (Homo sapiens (Human), UniProt O43614). Kind of experiment: FLIPR Ca2+ flux assay, hOX2R. In kind it is cell-based. The following applies: CHO cells expressing the human orexin-2 receptor; agonist 70 pM Ala-6,12 orexin-A. Here is the method:
The utility of the compounds in accordance with the present invention as orexin receptor OX1R and/or OX2R antagonists may be readily determined without undue experimentation by methodology well known in the art, including the “FLIPR Ca^2+ Flux Assay” (Okumura et al., Biochem. Biophys. Res. Comm. 280:976-981, 2001). In a typical experiment the OX1 and OX2 receptor antagonistic activity of the compounds of the present invention was determined in accordance with the following experimental method. For intracellular calcium measurements, Chinese hamster ovary (CHO) cells expressing the rat orexin-1 receptor or the human orexin-2 receptor, are grown in Iscove's modified DMEM containing 2 mM L-glutamine, […], 1% hypoxanthine-thymidine supplement, 100 U/ml penicillin, 100 μg/ml streptomycin and 10% heat-inactivated fetal calf serum (FCS). The cells are seeded at 20,000 cells/well into Becton-Dickinson black 384-well clear bottom sterile plates coated with poly-D-lysine. All reagents were from GIBCO-Invitrogen Corp. The seeded plates are incubated overnight at 37° C. and 5% CO2. Ala-6,12 human orexin-A as the agonist is prepared as a 1 mM stock solution in 1% bovine serum albumin (BSA) and diluted in assay buffer (HBSS containing 20 mM HEPES, 0.1% BSA and 2.5 mM probenecid, pH7.4) for use in the assay at a final concentration of 70pM. Test compounds are prepared as 10 mM stock solution in DMSO, then diluted in 384-well plates, first in DMSO, then assay buffer. On the day of the assay, cells are washed 3 times with 100 μl assay buffer and then incubated for 60 min (37° C., 5% CO2) in 60 μl assay buffer containing 1 μM Fluo-4AM ester, 0.02% pluronic acid, and 1% BSA. The dye loading solution is then aspirated and cells are washed 3 times with 100 μl assay buffer. 30 μl of that same buffer is left in each well. Within the Fluorescent Imaging Plate Reader (FLIPR, Molecular Devices), test compounds are added to the plate in a volume of 25 μl, incubated for 5 min and finally 25 μl of agonist is added. Fluorescence is measured for each well at 1 second intervals for 5 minutes and the height of each fluorescence peak is compared to the height of the fluorescence peak induced by 70 pM Ala-6,12 orexin-A with buffer in place of antagonist. For each antagonist, IC50 value (the concentration of compound needed to inhibit 50% of the agonist response) is determined. Alternatively, compound potency can be assessed by a radioligand binding assay (described in Bergman et. al. Bioorg. Med. Chem. Lett. 2008, 18, 1425-1430) in which the inhibition constant (Ki) is determined in membranes prepared from CHO cells expressing either the OX1 or OX2 receptor. The intrinsic orexin receptor antagonist activity of a compound which may be used in the present invention may be determined by these assays.
(In general: Calcium assays in cells follow changes in intracellular calcium, usually with a dye or a luminescent sensor.)

The target in experiment [1] is hOX1R (orexin-1 receptor) (Homo sapiens, UniProt O43613). The experiment is described as follows: FLIPR Ca2+ flux assay, hOX1R. It counts as cell-based. The following applies: CHO cells expressing the orexin-1 receptor (head: hOX1R; method: rat); agonist 70 pM Ala-6,12 orexin-A.

SMILES strings stand for the structures. Where only a bound is given, the exact number is not on record here.

Sequence of human orexin-2 receptor (O43614 whole entry): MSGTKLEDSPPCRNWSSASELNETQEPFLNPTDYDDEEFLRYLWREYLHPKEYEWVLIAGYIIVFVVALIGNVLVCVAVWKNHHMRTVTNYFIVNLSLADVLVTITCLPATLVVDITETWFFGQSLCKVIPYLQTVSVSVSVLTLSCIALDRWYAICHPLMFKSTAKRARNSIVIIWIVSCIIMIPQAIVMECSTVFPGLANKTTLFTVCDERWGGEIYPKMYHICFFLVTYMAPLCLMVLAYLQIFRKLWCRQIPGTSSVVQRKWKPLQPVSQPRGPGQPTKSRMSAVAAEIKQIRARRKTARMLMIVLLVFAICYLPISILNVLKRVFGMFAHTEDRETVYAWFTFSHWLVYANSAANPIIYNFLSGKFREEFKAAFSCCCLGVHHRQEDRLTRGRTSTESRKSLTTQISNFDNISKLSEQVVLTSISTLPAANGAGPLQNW

As usually defined, the IC50 is the concentration needed to halve the response being measured. Higher therefore signals weaker potency in that assay. As for `C[C@@H]1C[C@@H](Nc2cc(OCC(F)F)ccn2)CN1C(=O)c1ccccc1C1(C#N)CC1` [Example 2, 1-(2-((2R,4R)-4-((4-(2,2-difluoroethoxy)pyridin-2-yl)amino)-2-methylpyrrolidine-1-carbonyl)phenyl)cyclopropanecarbonitrile], the IC50 at human orexin-2 receptor stood at 65.1 nM; in experiment [1], 10000 nM.

As to `C[C@@H]1C[C@@H](Nc2cc(OCC(F)F)ccn2)CN1C(=O)c1ccccc1-n1ncnn1` [Example 3, (2-(2H-tetrazol-2-yl)phenyl)((2R,4R)-4-((4-(2,2-difluoroethoxy)pyridin-2-yl)amino)-2-methylpyrrolidin-1-yl)methanone], the figures for the IC50 (on human orexin-2 receptor; in experiment [1]) were 367 nM and above 10000 nM, respectively.

In the case of `C[C@@H]1C[C@@H](Nc2cc(OCC(F)F)ccn2)CN1C(=O)c1ccsc1-c1ncccn1` [Example 4], the IC50 on human orexin-2 receptor is 520 nM; in experiment [1], above 10000 nM.

For `C[C@@H]1C[C@@H](Nc2cc(OCC(F)F)ccn2)CN1C(=O)c1ccsc1-n1nccn1` [Example 5], the IC50 at human orexin-2 receptor was 625 nM; in experiment [1], above 10000 nM.

With `CCOc1ncccc1C(=O)N1C[C@H](Nc2cc(OCC(F)F)ccn2)C[C@H]1C` [Example 6, ((2R,4R)-4-((4-(2,2-difluoroethoxy)pyridin-2-yl)amino)-2-methylpyrrolidin-1-yl)(2-ethoxypyridin-3-yl)methanone], the IC50 was 989 nM at human orexin-2 receptor and above 10000 nM in experiment [1].

In the case of `C[C@@H]1C[C@@H](Nc2cc(OCC(F)F)ccn2)CN1C(=O)c1cccc2c1CCC2` [Example 7, ((2R,4R)-4-((4-(2,2-difluoroethoxy)pyridin-2-yl)amino)-2-methylpyrrolidin-1-yl)(2,3-dihydro-1H-inden-4-yl)methanone], the IC50 was 2000 nM on human orexin-2 receptor and above 10000 nM in experiment [1].

Take `C[C@@H]1C[C@@H](Nc2cc(C(F)F)ccn2)CN1C(=O)c1ccccc1-n1nccn1` [Example 9, (2-(2H-1,2,3-triazol-2-yl)phenyl)((2R,4R)-4-((4-(difluoromethyl)pyridin-2-yl)amino)-2-methylpyrrolidin-1-yl)methanone]: the concentration for half-maximal inhibition (IC50) on human orexin-2 receptor worked out at 13.6 nM; in experiment [1], 1630 nM.

As to `C[C@@H]1C[C@@H](Nc2ccc(F)cn2)CN1C(=O)c1ccccc1-n1nccn1` [Example 11, (2-(2H-1,2,3-triazol-2-yl)phenyl)((2R,4R)-4-((5-fluoropyridin-2-yl)amino)-2-methylpyrrolidin-1-yl)methanone], the IC50 turned out to be 175 nM on human orexin-2 receptor and 6290 nM in experiment [1].

Turning to `C[C@@H]1C[C@@H](Nc2nccc3ccccc23)CN1C(=O)c1ccccc1-n1nccn1` [Example 12, (2-(2H-1,2,3-triazol-2-yl)phenyl)((2R,4R)-4-(isoquinolin-1-ylamino)-2-methylpyrrolidin-1-yl)methanone], the half-maximal inhibitory concentration (IC50) was determined as 15.3 nM at human orexin-2 receptor and 257 nM in experiment [1].

On to `C[C@@H]1C[C@@H](Nc2cc(C(F)(F)F)ccn2)CN1C(=O)c1ccccc1-n1nccn1` [Example 14, (2-(2H-1,2,3-triazol-2-yl)phenyl)((2R,4R)-2-methyl-4-((4-(trifluoromethyl)pyridin-2-yl)amino)pyrrolidin-1-yl)methanone], for which the figures for the IC50 (at human orexin-2 receptor; in experiment [1]) were 26.3 nM and 1090 nM, respectively.

Take `C[C@@H]1C[C@@H](Nc2cc(Cl)ccn2)CN1C(=O)c1ccccc1-n1nccn1` [Example 15, (2-(2H-1,2,3-triazol-2-yl)phenyl)((2R,4R)-4-((4-chloropyridin-2-yl)amino)-2-methylpyrrolidin-1-yl)methanone]: the values for the IC50 (at human orexin-2 receptor; in experiment [1]) were 23.1 nM and 1160 nM, respectively.

Take `Cc1ccnc(N[C@@H]2C[C@@H](C)N(C(=O)c3ccccc3-n3nccn3)C2)c1` [Example 16, (2-(2H-1,2,3-triazol-2-yl)phenyl)((2R,4R)-2-methyl-4-((4-methylpyridin-2-yl)amino)pyrrolidin-1-yl)methanone]: the IC50 was found to be 75.9 nM at human orexin-2 receptor and 4070 nM in experiment [1].

Regarding `C[C@@H]1C[C@@H](Nc2cc(F)ccn2)CN1C(=O)c1ccccc1-n1nccn1` [Example 17, (2-(2H-1,2,3-triazol-2-yl)phenyl)((2R,4R)-4-((4-fluoropyridin-2-yl)amino)-2-methylpyrrolidin-1-yl)methanone], the figures for the IC50 (at human orexin-2 receptor; in experiment [1]) were 119 nM and above 10000 nM, respectively.

As to `COc1ccnc(N[C@@H]2C[C@@H](C)N(C(=O)c3ccccc3-n3nccn3)C2)c1C#N` [Example 18, 2-(((3R,5R)-1-(2-(2H-1,2,3-triazol-2-yl)benzoyl)-5-methylpyrrolidin-3-yl)amino)-4-methoxynicotinonitrile], the IC50 at human orexin-2 receptor was 167 nM; in experiment [1], above 10000 nM.

With `C[C@@H]1C[C@@H](Nc2cc(C#N)ccn2)CN1C(=O)c1ccccc1-n1nccn1` [Example 19, 2-(((3R,5R)-1-(2-(2H-1,2,3-triazol-2-yl)benzoyl)-5-methylpyrrolidin-3-yl)amino)isonicotinonitrile], the IC50 is 22.9 nM at human orexin-2 receptor and above 10000 nM in experiment [1].

Consider `CC(C)Oc1ccnc(N[C@@H]2C[C@@H](C)N(C(=O)c3ccccc3-n3nccn3)C2)c1` [Example 20, (2-(2H-1,2,3-Triazol-2-yl)phenyl)((2R,4R)-4-((4-isopropoxypyridin-2-yl)amino)-2-methylpyrrolidin-1-yl)methanone], for which the IC50 was determined as 39.8 nM on human orexin-2 receptor and 2800 nM in experiment [1].

On to `CCOc1ccnc(N[C@@H]2C[C@@H](C)N(C(=O)c3ccccc3-n3nccn3)C2)c1` [Example 21, (2-(2H-1,2,3-triazol-2-yl)phenyl)((2R,4R)-4-((4-ethoxypyridin-2-yl)amino)-2-methylpyrrolidin-1-yl)methanone], for which the IC50 at human orexin-2 receptor is 31.5 nM; in experiment [1], 3990 nM.

With `C[C@@H]1C[C@@H](N(C)c2cc(C#N)ccn2)CN1C(=O)c1ccccc1-n1nccn1` [Example 23, 2-(((3R,5R)-1-(2-(2H-1,2,3-triazol-2-yl)benzoyl)-5-methylpyrrolidin-3-yl)(methyl)amino)isonicotinonitrile], the “hOX2R FLIPR IC50” value on human orexin-2 receptor is listed as 120/5. In experiment [1], this compound came in with an IC50 above 10000 nM.

As to `COc1ccnc(N[C@@H]2C[C@@H](C)N(C(=O)c3ccccc3C3(C#N)CC3)C2)c1` [Example 24, 1-(2-((2R,4R)-4-((4-Methoxypyridin-2-yl)amino)-2-methylpyrrolidine-1-carbonyl)phenyl)cyclopropanecarbonitrile], the IC50 was determined as 23.9 nM on human orexin-2 receptor and 2720 nM in experiment [1].

Consider `COc1cccnc1N[C@@H]1C[C@@H](C)N(C(=O)c2ccccc2-n2nccn2)C1` [Example 25, (2-(2H-1,2,3-triazol-2-yl)phenyl)((2R,4R)-4-((3-methoxypyridin-2-yl)amino)-2-methylpyrrolidin-1-yl)methanone], for which the 50% inhibitory concentration (IC50) on human orexin-2 receptor was 36.1 nM; in experiment [1], 3380 nM.

Consider `C[C@@H]1C[C@@H](Nc2cc(C(F)F)ccn2)CN1C(=O)c1ccsc1-n1nccn1` [Example 27, (2-(2H-1,2,3-Triazol-2-yl)thiophen-3-yl)((2R,4R)-4-((4-(difluoromethyl)pyridin-2-yl)amino)-2-methylpyrrolidin-1-yl)methanone], for which the concentration for half-maximal inhibition (IC50) is 67.8 nM on human orexin-2 receptor and above 10000 nM in experiment [1].

On to `C[C@@H]1C[C@@H](Nc2cc(C(F)F)ccn2)CN1C(=O)c1cscc1-n1nccn1` [Example 28, (4-(2H-1,2,3-triazol-2-yl)thiophen-3-yl)((2R,4R)-4-((4-(difluoromethyl)pyridin-2-yl)amino)-2-methylpyrrolidin-1-yl)methanone], for which the figures for the IC50 (at human orexin-2 receptor; in experiment [1]) were 102 nM and above 10000 nM, respectively.

As for `C[C@@H]1C[C@@H](Nc2cc(C#N)ccn2)CN1C(=O)c1ccccc1-n1ncnn1` [Example 29, 2-(((3R,5R)-1-(2-(2H-tetrazol-2-yl)benzoyl)-5-methylpyrrolidin-3-yl)amino)isonicotinonitrile], the figures for the IC50 (at human orexin-2 receptor; in experiment [1]) were 302 nM and above 10000 nM, respectively.

For `C[C@@H]1C[C@@H](Nc2cc(C#N)ccn2)CN1C(=O)c1ccccc1-c1ncccn1` [Example 30, 2-(((3R,5R)-5-Methyl-1-(2-(pyrimidin-2-yl)benzoyl)pyrrolidin-3-yl)amino)isonicotinonitrile], the concentration for half-maximal inhibition (IC50) on human orexin-2 receptor is 31.1 nM; in experiment [1], above 10000 nM.

The values are drawn from patent publication US10150751B2 (Merck Sharp & Dohme Corp., priority 2014, dated 2018).
